Experimental data reported in patent US20250304620A1, “ANTIMICROBIAL PEPTIDE AND APPLICATION THEREOF” (priority 2023, published 2025).
Marks after values point to notes of the source that are not given here. Non-standard residues stand in square brackets, D forms with d. PEG2000 = polyethylene glycol 2000, conjugated to the N-terminus; PEG4000 = polyethylene glycol 4000, conjugated to the C-terminus; PEG200 = polyethylene glycol 200, conjugated to the C-terminus; PEG500 = polyethylene glycol 500, conjugated to the C-terminus; 2Nal = N[C@@H](Cc1ccc2ccccc2c1)C(=O)O; PEG1000 = polyethylene glycol 1000

Experiments:
[1] = test system: Bacillus subtilis ATCC 6633; type: cell-based
Description: (§1) According to the Standards of Clinical and Laboratory Standards Institute (CLSI) of the USA for antimicrobial drug susceptibility test operation standards, the micronutrient serial twofold dilution method was used further determine MICs of 30 AMPs (S/N: LV-1 to LV-30) 10 clinically common sensitive strains and 6 fungi in clinical practice. The experiment was repeated 5 times in parallel.

[2] = test system: Candida albicans ATCC MYA-2876; type: cell-based
Description: as §1

[3] = test system: Candida glabrata ATCC 15126; type: cell-based
Description: as §1

Candida krusei ATCC 6258 = type: cell-based
Description: as §1

[4] = test system: Candida tropicalis ATCC 750; type: cell-based
Description: as §1

Candida utilis ATCC 9950 = type: cell-based
Description: as §1

[5] = test system: Corynebacterium ATCC 7715; type: cell-based
Description: as §1

Enterococcus ATCC 29212 = type: cell-based
Description: as §1

[6] = test system: Escherichia coli ATCC 25922; type: cell-based
Description: as §1

[7] = test system: Klebsiella pneumoniae ATCC 700603; type: cell-based
Description: as §1

[8] = test system: Pseudomonas aeruginosa ATCC 27853; type: cell-based
Description: as §1

[9] = test system: Salmonella typhimurium ATCC 14028; type: cell-based
Description: as §1

[10] = test system: Serratia marcescens ATCC 29021; type: cell-based
Description: as §1

[11] = test system: Staphylococcus aureus ATCC 25923; type: cell-based
Description: as §1

[12] = test system: Trichophyton ATCC MYA-4438; type: cell-based
Description: as §1

[13] = test system: Shigella flexneri ATCC 12022; assay: MIC against clinically common bacterial strain; type: cell-based
Description: as §1

[14] = test system: Staphylococcus aureus (NRS 384); details: MIC vs Staphylococcus aureus (NRS 384) after trypsin treatment 1:10 (w/w), 37° C., 3 h
Description: Trypsin (250 U/mg, pH=8.0) and AMPs (LV-1 to LV-30) were mixed in a ratio of 1:10 (w/w) and added to a reaction buffer (0.2 M sodium phosphate, 1 mM CaCl2), pH 7.5), and then incubated at 37° C. for 3 h.

[15] = test system: Escherichia coli ATCC 25922; assay: Oral formulations on mice with systemic bacterial infection; type: in vivo, ICR mice; details: three times a day for 7 days; for Number of mice that died on each day after infection: day 4 / Number of mice that died on each day after infection: day 5 / Number of mice that died on each day after infection: day 6 / Number of mice that died on each day after infection: day 7 / Number of mice that died on each day after infection: day 8 / Average survival times (Days): n = 10; for Average survival times (Days): observed for 14 d
Description: Both female and male ICR mice were used in the test, half of the female and male mice were taken and randomly assigned into groups, with 10 mice in each group, and kept in separate cages. The mice were divided into a blank control group, a negative control group, a positive control Levofloxacin group, and AMPs LV-1 to LV-30 groups. An Escherichia coli ATCC 25922 bacterial suspension was prepared, a concentration of the suspension was adjusted 1×10^7 CFU/mL for subsequent use. Except for the blank control group, all other mice were injected with the Escherichia coli suspension (0.2 mL, 1×10^7 CFU/mL), into abdominal cavity of the mice, to establish a model. After the model was successfully established, the mice were given drug immediately according to their body weights. Except for the blank control group and the negative control group, the mice in all other groups were gavaged with different compounds, three times a day for 7 consecutive days. The mice were then observed for 14 d. The death of mice in each group was observed, and survival time of the mice was recorded. Results of the effect of the oral formulations of AMPs LV-1 to LV-30 on the survival time of mice infected with Escherichia coli are shown in Table 11.

| Substance | MIC Bacillus subtilis ATCC 6633 [1] [µg/mL] | MIC Candida albicans ATCC MYA-2876 [2] [µg/mL] | MIC Candida glabrata ATCC 15126 [3] [µg/mL] | MIC Candida krusei ATCC 6258 (Candida krusei ATCC 6258) [µg/mL] | MIC Candida tropicalis ATCC 750 [4] [µg/mL] | MIC Candida utilis ATCC 9950 (Candida utilis ATCC 9950) [µg/mL] | MIC Corynebacterium ATCC 7715 [5] [µg/mL] | MIC Enterococcus ATCC 29212 (Enterococcus ATCC 29212) [µg/mL] | MIC Escherichia coli ATCC 25922 [6] [µg/mL] | MIC Klebsiella pneumoniae ATCC 700603 [7] [µg/mL] | MIC Pseudomonas aeruginosa ATCC 27853 [8] [µg/mL] | MIC Salmonella typhimurium ATCC 14028 [9] [µg/mL] | MIC Serratia marcescens ATCC 29021 [10] [µg/mL] | MIC Staphylococcus aureus ATCC 25923 [11] [µg/mL] | MIC Trichophyton ATCC MYA-4438 [12] [µg/mL] | MIC Shigella flexneri ATCC 12022 [13] [µg/mL] | Trypsin MIC [14] [µg/mL] | Number of mice that died on each day after infection: day 4 ([15]; 1 mg/kg gavage) [Mouse] | Number of mice that died on each day after infection: day 5 ([15]; 1 mg/kg gavage) [Mouse] | Number of mice that died on each day after infection: day 6 ([15]; 1 mg/kg gavage) [Mouse] | also measured |
| --- | --- | --- | --- | --- | --- | --- | --- | --- | --- | --- | --- | --- | --- | --- | --- | --- | --- | --- | --- | --- | --- |
| Ac-RKLLXRLKXRK-PEG200 [LV-26] (Ac-RKLL[2Nal]RLK[2Nal]RK-PEG200) [polyethylene glycol 200 conjugated to C-terminal; X=3-(2-naphthyl)-alanine] | 4 | 8 | 8 | 4 | 8 | 16 | 2 | 8 | 2 | 4 | 4 | 2 | 8 | 1 | 16 | 4 | 1 | 2 | 1 | 0 | Number of mice that died on each day after infection: day 7 ([15]; 1 mg/kg gavage): 1 Mouse; Number of mice that died on each day after infection: day 8 ([15]; 1 mg/kg gavage): 1 Mouse; Average survival times (Days) ([15]; 1 mg/kg gavage): 9.8** Days |
| Ac-RKLLXRLKXRK-PEG500 [LV-27] (Ac-RKLL[2Nal]RLK[2Nal]RK-PEG500) [polyethylene glycol 500 conjugated to C-terminal; X=3-(2-naphthyl)-alanine] | 2 | 8 | 8 | 8 | 4 | 16 | 8 | 2 | 1 | 8 | 1 | 2 | 4 | 1 | 8 | 2 | 1 | 0 | 1 | 1 | Number of mice that died on each day after infection: day 4 ([15]; 0.2 mg/kg gavage): 1 Mouse; Number of mice that died on each day after infection: day 5 ([15]; 0.2 mg/kg gavage): 1 Mouse; Number of mice that died on each day after infection: day 6 ([15]; 0.2 mg/kg gavage): 2 Mouse; Number of mice that died on each day after infection: day 7 ([15]; 0.2 mg/kg gavage): 1 Mouse; Number of mice that died on each day after infection: day 8 ([15]; 0.2 mg/kg gavage): 0 Mouse; Average survival times (Days) ([15]; 0.2 mg/kg gavage): 9.8** Days; Number of mice that died on each day after infection: day 7 ([15]; 1 mg/kg gavage): 0 Mouse; Number of mice that died on each day after infection: day 8 ([15]; 1 mg/kg gavage): 1 Mouse; Average survival times (Days) ([15]; 1 mg/kg gavage): 11.7**** Days; Number of mice that died on each day after infection: day 4 ([15]; 5 mg/kg gavage): 0 Mouse; Number of mice that died on each day after infection: day 5 ([15]; 5 mg/kg gavage): 2 Mouse; Number of mice that died on each day after infection: day 6 ([15]; 5 mg/kg gavage): 1 Mouse; Number of mice that died on each day after infection: day 7 ([15]; 5 mg/kg gavage): 0 Mouse; Number of mice that died on each day after infection: day 8 ([15]; 5 mg/kg gavage): 0 Mouse; Average survival times (Days) ([15]; 5 mg/kg gavage): 11.4**** Days; survival time of mice infected with Escherichia coli ([15]; gavage, observed 14 d): superior to those of the Levofloxacin group |
| Ac-RKLLXRLKXRK-PEG1000 [LV-28] (Ac-RKLL[2Nal]RLK[2Nal]RK-PEG1000) [polyethylene glycol 1000 conjugated to C-terminal; X=3-(2-naphthyl)-alanine] | 4 | 8 | 8 | 4 | 4 | 8 | 8 | 8 | 2 | 4 | 2 | 4 | 8 | 2 | 8 | 4 | 1 | 1 | 2 | 1 | Number of mice that died on each day after infection: day 7 ([15]; 1 mg/kg gavage): 1 Mouse; Number of mice that died on each day after infection: day 8 ([15]; 1 mg/kg gavage): 0 Mouse; Average survival times (Days) ([15]; 1 mg/kg gavage): 9.7** Days |
| Ac-RKLLXRLKXRK-PEG4000 [LV-30] (Ac-RKLL[2Nal]RLK[2Nal]RK-PEG4000) [polyethylene glycol 4000 conjugated to C-terminal; X=3-(2-naphthyl)-alanine] | 2 | 8 | 16 | 16 | 8 | 8 | 8 | 4 | 2 | 8 | 2 | 2 | 8 | 2 | 8 | 2 | 1 | 1 | 1 | 3 | Number of mice that died on each day after infection: day 7 ([15]; 1 mg/kg gavage): 0 Mouse; Number of mice that died on each day after infection: day 8 ([15]; 1 mg/kg gavage): 1 Mouse; Average survival times (Days) ([15]; 1 mg/kg gavage): 9.1** Days |
| PEG2000-RKLLXRLKXRK-NH2 [LV-29] (PEG2000-RKLL[2Nal]RLK[2Nal]RK-NH2) [polyethylene glycol 2000 conjugated to N-terminal; X=3-(2-naphthyl)-alanine] | 4 | 8 | 8 | 8 | 4 | 4 | 16 | 8 | 1 | 4 | 4 | 4 | 4 | 2 | 16 | 4 | 1 | 0 | 1 | 2 | Number of mice that died on each day after infection: day 7 ([15]; 1 mg/kg gavage): 1 Mouse; Number of mice that died on each day after infection: day 8 ([15]; 1 mg/kg gavage): 1 Mouse; Average survival times (Days) ([15]; 1 mg/kg gavage): 10.2*** Days |
